We go through 6 molecules from ChEMBL document CHEMBL1132037, “Anabaenopeptins G and H, potent carboxypeptidase A inhibitors from the cyanobacterium Oscillatoria agardhii (NIES-595)” (Bioorg Med Chem Lett, 1999).

≈ marks a conversion by molar mass, not a printed value. Numbered stars: 1 amine (or outer) side, 2 acyl side, 3 side chain; on linkers, the order of the positions; unused ones are H or OH. Bridge positions count the residues as written; N and C are the ends. Square brackets hold non-standard residues; d marks the D form. Peptide text beside a SMILES is read from it. NMehTyr = CN[C@@H](CCc1ccc(O)cc1)C(=O)O; hTyr = N[C@@H](CCc1ccc(O)cc1)C(=O)O; NMeA = CN[C@@H](C)C(=O)O; CO = O=C([*:1])[*:2]

The first test addresses Carboxypeptidase A1 (Bos taurus) (UniProt P00730). Put plainly: Ability to inhibit Carboxypeptidase A from bovine pancreas.
For `CC[C@H](C)[C@@H]1NC(=O)[C@H](NC(=O)N[C@@H](CCCNC(=N)N)C(=O)O)CCCCNC(=O)[C@H]([C@@H](C)CC)NC(=O)[C@H](CCc2ccc(O)cc2)N(C)C(=O)[C@H](CCc2ccc(O)cc2)NC1=O` [ANABAENOPEPTIN H] ({Arg-CO}-[dK]I[hTyr][NMehTyr]I; lactam 1-C), the IC50 (as a rule, the concentration that gives 50% inhibition) was found to be 3.4 µg/mL (≈ 3.68 µM).
Molecule `CC[C@H](C)[C@H](NC(=O)N[C@@H]1CCCCNC(=O)[C@H]([C@@H](C)CC)NC(=O)[C@H](CCc2ccc(O)cc2)N(C)C(=O)[C@H](CCc2ccc(O)cc2)NC(=O)[C@H](C(C)C)NC1=O)C(=O)O` [ANABAENOPEPTIN T] yielded an IC50 of 2 µg/mL (≈ 2.31 µM).
The same measure, in the same setting: in the case of `CC[C@H](C)[C@@H]1NC(=O)[C@H](NC(=O)NC(Cc2ccc(O)cc2)C(=O)O)CCCCNC(=O)[C@H]([C@@H](C)CC)NC(=O)[C@H](CCc2ccc(O)cc2)N(C)C(=O)[C@H](CCc2ccc(O)cc2)NC1=O` (stereo partly specified) it was 0.0018 µg/mL (≈ 0.00194 µM).

A further test has the same target. Briefly: Ability to inhibit Carboxypeptidase A from bovine pancreas at a concentration of 50 ug/mL; No Activity.
As to `CC(C)[C@@H]1NC(=O)[C@H](NC(=O)N[C@@H](CCCNC(=N)N)C(=O)O)CCCCNC(=O)[C@H](Cc2ccccc2)NC(=O)[C@H](C)N(C)C(=O)[C@H](CCc2ccc(O)cc2)NC1=O` [ANABAENOPEPTIN B] ({Arg-CO}-[dK]V[hTyr][NMeA]F; lactam 1-C), the IC50 entry was “Not Active”.
As for `CC[C@H](C)[C@@H]1NC(=O)[C@H](NC(=O)N[C@@H](CCCNC(=N)N)C(=O)O)CCCCNC(=O)[C@H](Cc2ccccc2)NC(=O)[C@H](C)N(C)C(=O)[C@H](CCc2ccc(O)cc2)NC1=O` [ANABAENOPEPTIN F] ({Arg-CO}-[dK]I[hTyr][NMeA]F; lactam 1-C), the IC50 result is on record as “Not Active”.
The same measure, in the same setting: as for `COc1ccc(CC[C@@H]2NC(=O)[C@H](C(C)C)NC(=O)[C@H](NC(=O)N[C@@H](CCCN=C(N)N)C(=O)O)CCCCNC(=O)[C@H](Cc3ccccc3)NC(=O)[C@H](C)N(C)C2=O)cc1`, the entry is “Not Active”.
